Numbers after ± are expanded uncertainties.
Legend:
[1] = for surface tension liquid-gas: Pendant drop shape; for viscosity / mass density: 101.33 kPa, Liquid; for viscosity: Concentric cylinders viscometry; for mass density: Vibrating tube method
[2] = refractive index (Na D-line) (dimensionless); details: 101.33 kPa, Liquid, Standard Abbe refractometry

CCCCCCCC[P+](CCCCCCCC)(CCCCCCCC)CCCCCCCC.[Br-] [tetraoctylphosphonium bromide]
Details | mass density, [1] [kg/m3] | refractive index, [2] | surface tension liquid-gas, [1] [mN/m] | viscosity, [1] [mPa·s]
318.1 K | – | – | 27.4 ± 0.4 | –
318.15 K | 945 ± 0.9 | 1.48262 ± 0.00051 | – | 376.5 ± 11
323.1 K | – | – | 27.1 ± 0.4 | –
323.15 K | 942 ± 0.9 | 1.48092 ± 0.00051 | – | 289.9 ± 7.5
328.15 K | 938.9 ± 0.9 | 1.47916 ± 0.00051 | – | 226.4 ± 5.2
333.1 K | – | – | 26.6 ± 0.4 | –
333.15 K | 935.9 ± 0.9 | 1.47699 ± 0.00051 | – | 178.7 ± 3.6
338.15 K | 932.9 ± 0.9 | 1.47523 ± 0.00051 | – | 142.1 ± 2.5
343.1 K | – | – | 26 ± 0.4 | –
343.15 K | 929.8 ± 0.9 | 1.47354 ± 0.00051 | – | 114.4 ± 1.7
348.15 K | 926.8 ± 0.9 | 1.47195 ± 0.00051 | – | 93.4 ± 1.2
353.15 K | 923.7 ± 0.8 | 1.47035 ± 0.00051 | – | 76.8 ± 0.9

CCCC[P+](CC)(CCCC)CCCC.CCOP(=O)([O-])OCC [tributylethylphosphonium diethylphosphate]
Details | mass density, [1] [kg/m3] | refractive index, [2] | surface tension liquid-gas, [1] [mN/m] | viscosity, [1] [mPa·s]
283.15 K | 1021.5 ± 0.9 | 1.47176 ± 0.00051 | – | 1018.4 ± 43
288.15 K | 1018 ± 0.9 | 1.46996 ± 0.00051 | – | 669.5 ± 24
293.15 K | 1014.4 ± 0.9 | 1.46809 ± 0.00051 | – | 466.4 ± 15
293.2 K | – | – | 31.4 ± 0.5 | –
298.15 K | 1010.9 ± 0.9 | 1.46618 ± 0.00051 | – | 316.8 ± 8.6
298.2 K | – | – | 30.5 ± 0.4 | –
303.15 K | 1007.5 ± 0.9 | 1.46474 ± 0.00051 | – | 226.7 ± 5.2
303.2 K | – | – | 29.8 ± 0.4 | –
308.15 K | 1004.1 ± 0.9 | 1.46308 ± 0.00051 | – | 166 ± 3.2
313.1 K | – | – | 29.2 ± 0.4 | –
313.15 K | 1000.7 ± 0.9 | 1.4611 ± 0.00051 | – | 124.7 ± 2
318.15 K | 997.6 ± 0.9 | 1.45923 ± 0.00051 | – | 94.6 ± 1.3
323.1 K | – | – | 28.5 ± 0.4 | –
323.15 K | 994.3 ± 0.9 | 1.45738 ± 0.00051 | – | 73.4 ± 0.8
328.15 K | 990.9 ± 0.9 | 1.45563 ± 0.00051 | – | 57.9 ± 0.6
333.1 K | – | – | 27.5 ± 0.4 | –
333.15 K | 987.6 ± 0.9 | 1.45385 ± 0.00051 | – | 46.4 ± 0.5
338.15 K | 984.3 ± 0.9 | 1.45212 ± 0.00051 | – | 37.5 ± 0.4
343.1 K | – | – | 31.4 ± 0.5 | –
343.15 K | 980.9 ± 0.9 | 1.45045 ± 0.00051 | – | 30.8 ± 0.3
348.15 K | 977.6 ± 0.9 | 1.4488 ± 0.00051 | – | 25.6 ± 0.3
353.15 K | 974.3 ± 0.9 | 1.44718 ± 0.00051 | – | 21.6 ± 0.2

CCCC[P+](C)(CCCC)CCCC.COS(=O)(=O)[O-] [tributylmethylphosphonium methyl sulfate]
Details | mass density, [1] [kg/m3] | refractive index, [2] | surface tension liquid-gas, [1] [mN/m] | viscosity, [1] [mPa·s]
283.15 K | 1076.5 ± 1 | 1.48038 ± 0.00051 | – | 6214.1 ± 410
288.15 K | 1073.4 ± 1 | 1.47891 ± 0.00051 | – | 3840.1 ± 230
293.15 K | 1070.3 ± 1 | 1.47742 ± 0.00051 | – | 2476.4 ± 130
293.2 K | – | – | 35.5 ± 0.5 | –
298.15 K | 1067.2 ± 1 | 1.47632 ± 0.00051 | – | 1629.2 ± 78
298.2 K | – | – | 34.7 ± 0.5 | –
303.15 K | 1064.1 ± 1 | 1.47427 ± 0.00051 | – | 1109.1 ± 48
303.2 K | – | – | 34.1 ± 0.5 | –
308.15 K | 1061 ± 1 | 1.47232 ± 0.00051 | – | 774.5 ± 30
313.1 K | – | – | 33.5 ± 0.5 | –
313.15 K | 1057.9 ± 1 | 1.47072 ± 0.00051 | – | 555 ± 19
318.15 K | 1054.8 ± 1 | 1.46912 ± 0.00051 | – | 403.6 ± 12
323.1 K | – | – | 32.9 ± 0.5 | –
323.15 K | 1051.8 ± 1 | 1.46758 ± 0.00051 | – | 300 ± 7.9
328.15 K | 1048.9 ± 1 | 1.46603 ± 0.00051 | – | 227 ± 5.2
333.1 K | – | – | 32.2 ± 0.5 | –
333.15 K | 1045.9 ± 1 | 1.46457 ± 0.00051 | – | 174.7 ± 3.5
338.15 K | 1043 ± 1 | 1.46318 ± 0.00051 | – | 136.3 ± 2.3
343.15 K | 1040.1 ± 1 | 1.46185 ± 0.00051 | – | 107.9 ± 1.6
348.15 K | 1037.3 ± 1 | 1.46067 ± 0.00051 | – | 86.4 ± 1.1
353.15 K | 1034.4 ± 1 | 1.45965 ± 0.00051 | – | 70 ± 0.8

CC(C)C[P+](C)(CC(C)C)CC(C)C.Cc1ccc(S(=O)(=O)[O-])cc1 [triisobutylmethylphosphonium p-toluenesulfonate]
Details | mass density, [1] [kg/m3] | refractive index, [2] | surface tension liquid-gas, [1] [mN/m] | viscosity, [1] [mPa·s]
283.15 K | 1082.4 ± 1 | 1.52489 ± 0.00051 | – | 21829 ± 1800
288.15 K | 1079.3 ± 1 | 1.52338 ± 0.00051 | – | 11305 ± 830
293.15 K | 1076.2 ± 1 | 1.5217 ± 0.00051 | – | 6231.9 ± 410
293.2 K | – | – | 38.1 ± 0.5 | –
298.15 K | 1073.2 ± 1 | 1.5203 ± 0.00051 | – | 3612.4 ± 210
298.2 K | – | – | 37.3 ± 0.5 | –
303.15 K | 1070.1 ± 1 | 1.51828 ± 0.00051 | – | 2199.9 ± 110
303.2 K | – | – | 36.6 ± 0.5 | –
308.15 K | 1067 ± 1 | 1.51635 ± 0.00051 | – | 1397.3 ± 64
313.1 K | – | – | 35.5 ± 0.5 | –
313.15 K | 1064 ± 1 | 1.51433 ± 0.00051 | – | 917.9 ± 37
318.15 K | 1060.9 ± 1 | 1.51233 ± 0.00051 | – | 623.7 ± 22
323.1 K | – | – | 35 ± 0.5 | –
323.15 K | 1057.7 ± 1 | 1.51055 ± 0.00051 | – | 436.2 ± 14
328.15 K | 1054.7 ± 1 | 1.50872 ± 0.00051 | – | 313.1 ± 8.4
333.1 K | – | – | 34.3 ± 0.5 | –
333.15 K | 1051.8 ± 1 | 1.50698 ± 0.00051 | – | 230.1 ± 5.3
338.15 K | 1048.8 ± 1 | 1.50537 ± 0.00051 | – | 172.7 ± 3.4
343.15 K | 1045.9 ± 1 | 1.50391 ± 0.00051 | – | 132.1 ± 2.2
348.15 K | 1043.1 ± 1 | 1.50252 ± 0.00051 | – | 102.8 ± 1.5
353.15 K | 1040.2 ± 1 | 1.50124 ± 0.00051 | – | 81.3 ± 1

Source: the NIST ThermoML archive (doi:10.1016/j.fluid.2015.05.009)
